{"source": "paper PMC5797166", "about": "“A multidrug ABC transporter with a taste for GTP” (Scientific Reports, 2018)", "key": {"[1]": {"target": "T1, BmrC/BmrD (Bacillus subtilis, UniProt O07549+O07550)", "T1 construct": "full-length heterodimer overexpressed in E. coli, inside-out membrane vesicles", "T1 sequence (O07550 whole entry)": "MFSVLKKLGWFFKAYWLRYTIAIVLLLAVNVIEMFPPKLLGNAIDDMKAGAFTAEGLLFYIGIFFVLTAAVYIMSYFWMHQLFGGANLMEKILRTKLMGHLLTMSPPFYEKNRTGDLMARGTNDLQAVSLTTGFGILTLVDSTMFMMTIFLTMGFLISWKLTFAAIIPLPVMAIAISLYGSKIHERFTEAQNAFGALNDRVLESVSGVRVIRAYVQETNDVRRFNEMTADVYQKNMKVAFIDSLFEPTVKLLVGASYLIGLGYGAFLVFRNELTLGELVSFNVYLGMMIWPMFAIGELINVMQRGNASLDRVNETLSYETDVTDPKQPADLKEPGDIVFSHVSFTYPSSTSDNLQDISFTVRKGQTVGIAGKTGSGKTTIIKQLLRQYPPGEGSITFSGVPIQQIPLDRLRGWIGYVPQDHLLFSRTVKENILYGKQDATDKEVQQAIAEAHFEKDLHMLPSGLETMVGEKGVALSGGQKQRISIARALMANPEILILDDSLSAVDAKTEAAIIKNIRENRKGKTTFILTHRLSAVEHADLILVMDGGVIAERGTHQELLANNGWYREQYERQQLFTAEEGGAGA", "T1 sequence (O07549 whole entry)": "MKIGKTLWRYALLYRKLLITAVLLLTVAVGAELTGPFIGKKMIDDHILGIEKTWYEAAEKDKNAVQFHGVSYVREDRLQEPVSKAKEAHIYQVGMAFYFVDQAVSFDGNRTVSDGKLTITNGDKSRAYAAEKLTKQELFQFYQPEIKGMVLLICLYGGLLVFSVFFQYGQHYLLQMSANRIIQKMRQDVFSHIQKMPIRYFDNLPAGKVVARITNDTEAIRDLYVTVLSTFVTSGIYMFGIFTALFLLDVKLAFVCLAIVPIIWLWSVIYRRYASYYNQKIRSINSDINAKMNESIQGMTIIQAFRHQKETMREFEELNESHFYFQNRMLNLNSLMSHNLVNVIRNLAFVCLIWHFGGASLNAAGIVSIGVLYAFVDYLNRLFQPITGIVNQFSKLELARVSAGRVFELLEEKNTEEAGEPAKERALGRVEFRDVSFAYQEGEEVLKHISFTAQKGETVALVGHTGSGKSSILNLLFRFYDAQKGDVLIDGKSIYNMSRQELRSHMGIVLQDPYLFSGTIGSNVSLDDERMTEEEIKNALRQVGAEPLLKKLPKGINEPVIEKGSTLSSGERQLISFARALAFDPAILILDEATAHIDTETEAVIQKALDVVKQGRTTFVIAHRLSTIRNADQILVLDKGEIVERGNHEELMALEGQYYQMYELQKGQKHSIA", "test": "fluorescence transport assay, inside-out E. coli membrane vesicles", "type": "biochemical", "conditions": "2 mM ATP or GTP, Walker-A K/A double mutant as control"}, "[2]": {"target": "T2, PatA/PatB (Streptococcus pneumoniae, UniProt Q8DN70+Q8DN72)", "T2 construct": "gene ABC-NP; models PatA 1-564, PatB 1-603", "T2 sequence (Q8DN70 entry or part of it)": "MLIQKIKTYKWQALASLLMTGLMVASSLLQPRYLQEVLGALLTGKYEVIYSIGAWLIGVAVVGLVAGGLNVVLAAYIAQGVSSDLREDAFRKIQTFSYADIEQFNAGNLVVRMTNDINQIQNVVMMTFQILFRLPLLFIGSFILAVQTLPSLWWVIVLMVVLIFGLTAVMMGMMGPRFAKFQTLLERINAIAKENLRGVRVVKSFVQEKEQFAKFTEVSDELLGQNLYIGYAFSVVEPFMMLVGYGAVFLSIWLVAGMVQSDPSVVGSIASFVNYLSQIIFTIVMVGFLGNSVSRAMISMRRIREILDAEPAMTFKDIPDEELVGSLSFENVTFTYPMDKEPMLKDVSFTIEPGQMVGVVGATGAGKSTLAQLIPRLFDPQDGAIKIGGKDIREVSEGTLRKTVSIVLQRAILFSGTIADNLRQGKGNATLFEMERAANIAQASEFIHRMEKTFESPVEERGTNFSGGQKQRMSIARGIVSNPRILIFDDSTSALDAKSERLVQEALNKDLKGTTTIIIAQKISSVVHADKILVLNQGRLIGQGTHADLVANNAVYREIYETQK", "T2 sequence (Q8DN72 entry or part of it)": "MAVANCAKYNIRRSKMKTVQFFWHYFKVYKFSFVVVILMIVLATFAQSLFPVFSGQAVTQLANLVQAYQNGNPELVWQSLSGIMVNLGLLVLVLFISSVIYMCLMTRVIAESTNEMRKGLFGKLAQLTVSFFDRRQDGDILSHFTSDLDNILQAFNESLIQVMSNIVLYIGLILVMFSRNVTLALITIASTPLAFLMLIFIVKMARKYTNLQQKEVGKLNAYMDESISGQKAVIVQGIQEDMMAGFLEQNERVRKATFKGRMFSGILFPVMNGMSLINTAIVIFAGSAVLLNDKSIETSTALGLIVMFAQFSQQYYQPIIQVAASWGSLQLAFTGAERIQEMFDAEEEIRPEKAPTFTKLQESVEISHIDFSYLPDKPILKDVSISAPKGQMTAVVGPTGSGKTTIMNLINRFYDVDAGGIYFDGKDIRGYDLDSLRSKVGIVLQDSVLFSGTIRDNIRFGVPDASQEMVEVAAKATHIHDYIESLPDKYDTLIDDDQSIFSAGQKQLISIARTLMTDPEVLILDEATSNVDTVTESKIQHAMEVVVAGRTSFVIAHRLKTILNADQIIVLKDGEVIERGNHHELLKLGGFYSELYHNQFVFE", "test": "coupled NADH oxidation assay, GTPase", "type": "biochemical", "conditions": "nanodiscs of S. pneumoniae lipids, 4 mM GTP, 2 mM MgCl2, pH 7.4"}, "[3]": {"system": "Nc1nc2c(ncn2[C@@H]2O[C@H](COP(=O)(O)OP(=O)(O)OP(=O)(O)O)[C@@H](O)[C@H]2O)c(=O)[nH]1", "test": "purified protein", "type": "biochemical, Streptococcus pneumoniae", "conditions": "proteoliposomes of E. coli lipids, 10 mM MgCl2, pH 8, 37 °C, cooperative fit, nH 1.74"}}, "data": [{"molecule": "CCOc1ccc(-c2nc3ccc(-c4nc5ccc(N6CCN(C)CC6)cc5[nH]4)cc3[nH]2)cc1", "note": "[Hoechst 33342, 2′-(4-ethoxyphenyl)-5-(4-methyl-1-piperazinyl)-2,5′-bis-1H-benzimidazole]", "values": [{"measurement": "fluorescence transport assay, inside-out E. coli membrane vesicles", "setting": "[1]; 1 µM Hoechst, 2 mM MgCl2, pH 8.0, 25 °C", "value": "BmrC/BmrD behaves as a conventional ABC transporter being more active in the presence of ATP"}]}, {"molecule": "COc1cccc2c1C(=O)c1c(O)c3c(c(O)c1C2=O)C[C@@](O)(C(=O)CO)C[C@@H]3O[C@H]1C[C@H](N)[C@H](O)[C@H](C)O1", "note": "[doxorubicin]", "values": [{"measurement": "fluorescence transport assay, inside-out E. coli membrane vesicles", "setting": "[1]; 2 µM doxorubicin, 2 mM MgCl2, pH 8.0, 25 and 37 °C", "value": "ATP was the preferred energy substrate for BmrC/BmrD at both temperatures"}]}, {"molecule": "[O]=[V]([OH])([OH])[OH]", "note": "[orthovanadate]", "values": [{"measurement": "% inhibition at 4 mM", "setting": "[2]", "value": 94, "unit": "%"}]}, {"molecule": "PatA/PatB (Streptococcus pneumoniae R6)", "values": [{"measurement": "Km", "setting": "[3]", "value": "2640 ± 460", "unit": "µM"}]}]}
